Like-named read-outs stand apart in the source and are kept apart here.
Assays:
[1] = human
[2] = cited from earlier work
[3] = Measurement of Rb (blood-to-plasma concentration ratio) in spiked human blood, LC-MS/MS; format: in vitro ADME; conditions: footnote a: Rb is our experimental data; for blood plasma ratio at 30 min, 5 µM: read-out: Rb_Human (blood-to-plasma concentration ratio); for Rb_Human: blood-to-plasma concentration ratio
Experimental: Heparinized blood was collected from three to seven healthy volunteers not medicated for at least seven days. […] The blood was spiked with the compounds (final concentration of 5 µM) and incubated at 37 °C for 30 min. Following incubation, the samples were centrifuged at 5000 rpm for 5 min to obtain plasma. Subsequently, the concentrations of the compounds in the plasma were determined by LC–MS/MS using the same method as described for the measurement of PPB. Rb was calculated according to Eq. (2).

[4] = test system: plasma protein; assay: Measurement of PPB by equilibrium dialysis in pooled human plasma (free fraction); conditions: for fp_Human: footnote b: fu is our experimental data; for fraction unbound at 5 h, 5 µM: human
Experimental: (§1) Pooled human plasma was obtained from heparinized blood from nine to ten healthy volunteers not medicated for at least seven days. The human blood collection and PPB experimental protocols were approved by the Ethical Review Committee of Japan Tobacco Inc, Central Pharmaceutical Research Institute. Informed consent was obtained from all subjects, and the PPB experiments were conducted in accordance with the Ethical Guidelines for Medical and Health Research Involving Human Subjects. Binding of compounds to plasma protein was evaluated by equilibrium dialysis utilizing a 96-well equilibrium dialysis unit and HTD96b dialysis membrane strips with a molecular cutoff of 12–14 kDa (HTDialysis, Gales Ferry, CT, USA). Plasma containing the compounds (final concentration of 5 µM) and buffer (Dulbecco’s phosphate-buffered saline; Thermo Fisher Scientific, Waltham, MA) were added into the donor and receiver cells, respectively. Following dialysis for 5 h at 37 °C, the concentrations of the compounds in the plasma and buffer were determined by liquid chromatography–tandem mass spectrometry (LC–MS/MS) (Acquity™ Ultra Performance LC I-Class and Xevo TQ-S; Waters, Milford, MA). The percentage of free fraction (fu) was calculated according to the following equation [17]:1 Freefraction(fu,%)=Concentrationofbuffer/Concentrationofplasma×100

[5] = human, cited from earlier work
[6] = test system: plasma protein; assay: in vitro; conditions: human
Experimental: as §1

[7] = human; median if multiple values were reported; ref numbers in Table S1; cited from earlier work
[8] = human, intravenous, median if multiple values were reported, ref numbers in Table S1
[9] = intravenous, median if multiple values were reported, ref numbers in Table S1
[10] = human, intravenous, median if multiple values reported, Reference of Table S1
[11] = intravenous, median if multiple values reported, Reference of Table S1

Structure (SMILES) | in vivo MRT_(hr)_Human [1] | in vivo CL_(L/hr/kg)_Human [2, 8] | blood plasma ratio at 30 min, 5 µM ([3]; heparinized human whole blood) | fp_Human ([4]; human plasma free fraction) | fraction unbound at 5 h, 5 µM ([4]; pooled human plasma) | in vivo Vd_(L/kg)_Human [5, 9] | Rb_Human [3] | fp_Human ([4]; free fraction in human plasma) | in vivo Vd_(L/kg)_Human [5, 11] | other results
CN(C)CCc1c[nH]c2ccc(CS(=O)(=O)N3CCCC3)cc12 [Almotriptan] | 4.120 h | 0.534 L/h/kg | 1.15 | 0.625 | 0.625 | 2.200 L/kg |  |  |  | 
CO/N=C(\C(=O)N[C@@H]1C(=O)N2C(C(=O)O)=C(CSc3nc(C)c(CC(=O)O)s3)CS[C@H]12)c1csc(N)n1 [Cefodizime] | 1.475 h | 0.037 L/h/kg | 0.57 | 0.097 | 0.097 | 0.054 L/kg |  |  |  | 
Cc1cc(O)c(C(=O)N[C@@H](C(=O)N[C@@H]2C(=O)N3C(C(=O)O)=C(CSc4nnnn4C)CS[C@H]23)c2ccc(O)cc2)cn1 [Cefpiramide] | 4.514 h | 0.029 L/h/kg | 0.53 | 0.039 | 0.039 | 0.130 L/kg |  |  |  | 
CO/N=C(\C(=O)N[C@@H]1C(=O)N2C(C(=O)O)=CCS[C@H]12)c1csc(N)n1 [Ceftizoxime] | 1.706 h | 0.126 L/h/kg | 0.54 | 0.995 | 0.995 | 0.215 L/kg |  |  |  | 
CN(C)CCCC1(c2ccc(F)cc2)OCc2cc(C#N)ccc21 (stereo not drawn) [Citalopram] | 50.388 h | 0.258 L/h/kg | 1.39 | 0.396 | 0.396 | 13.000 L/kg |  |  |  | 
O=P1(N(CCCl)CCCl)NCCCO1 (stereo not drawn) [Cyclophosphamide] | 10.833 h |  |  | 0.928 |  |  |  |  |  | in vivo CL_(L/hr/kg)_Human ([2]; in vivo, iv): 0.078 L/h/kg; blood plasma ratio at 30 min, 5 µM ([3]; plasma): 0.92; fraction unbound at 5 h, 5 µM ([4]; plasma): 0.928; in vivo Vd_(L/kg)_Human ([5]; in vivo, iv): 0.715 L/kg
O=C(O)Cc1ccccc1Nc1c(Cl)cccc1Cl [Diclofenac] | 1.048 h | 0.210 L/h/kg | 0.6 | 0.00216 | 0.00216 | 0.220 L/kg |  |  |  | 
CC(C)N(CCC(C(N)=O)(c1ccccc1)c1ccccn1)C(C)C (stereo not drawn) [Disopyramide] | 12.037 h | 0.099 L/h/kg | 0.81 | 0.204 | 0.204 | 0.650 L/kg |  |  |  | 
NC(N)=Nc1nc(CSCCC(N)=NS(N)(=O)=O)cs1 [Famotidine] | 3.030 h | 0.396 L/h/kg | 0.74 | 1.000 | 1 | 1.200 L/kg |  |  |  | 
NCC1(CC(=O)O)CCCCC1 [Gabapentin] | 7.500 h | 0.102 L/h/kg |  | 1.000 |  |  |  |  |  | fraction unbound [6]: 1; Rb_Human (blood-to-plasma concentration ratio) [7]: 1.10; in vivo Vd_(L/kg)_Human ([5]; in vivo, iv): 0.765 L/kg
C[C@H]1NCc2cc(-c3ccc4c(=O)c(C(=O)O)cn(C5CC5)c4c3OC(F)F)ccc21 [Garenoxacin] | 13.550 h | 0.074 L/h/kg | 0.72 | 0.236 | 0.236 | 1.000 L/kg |  |  |  | 
COc1ccc2c(c1)c(CC(=O)O)c(C)n2C(=O)c1ccc(Cl)cc1 [Indomethacin] | 4.958 h | 0.095 L/h/kg | 0.59 | 0.00361 | 0.00361 | 0.595 L/kg |  |  |  | 
CC1CCCC(C)N1CCCC(O)(c1ccccc1)c1ccccn1 (stereo not drawn) [Pirmenol] | 12.500 h |  |  |  |  |  | 0.86 | 0.339 | 1.350 L/kg | in vivo CL_(L/hr/kg)_Human [2, 10]: 0.108 L/h/kg
C[C@]12C=CC(=O)C=C1CC[C@@H]1[C@@H]2C(=O)C[C@@]2(C)[C@H]1CC[C@]2(O)C(=O)CO [Prednisone] | 5.133 h |  |  |  |  |  | 0.90 | 0.447 | 0.770 L/kg | 
CC(C)NCC(O)COc1cccc2ccccc12 (stereo not drawn) [Propranolol] | 4.653 h |  |  |  |  |  | 1.08 | 0.098 | 3.350 L/kg | in vivo CL_(L/hr/kg)_Human [2, 10]: 0.720 L/h/kg
COc1cc(NCc2ccc3nc(N)nc(N)c3c2C)cc(OC)c1OC [Trimetrexate] |  |  |  |  |  |  | 0.66 | 0.047 | 0.770 L/kg | in vivo CL_(L/hr/kg)_Human [2, 10]: 0.046 L/h/kg
COc1ccc(C(CN(C)C)C2(O)CCCCC2)cc1 (stereo not drawn) [Venlafaxine] |  |  |  |  |  |  | 1.19 | 0.684 | 4.400 L/kg | in vivo CL_(L/hr/kg)_Human [2, 10]: 0.840 L/h/kg
CC[C@]1(O)C[C@@H]2CN(CCc3c([nH]c4ccccc34)[C@@](C(=O)OC)(c3cc4c(cc3OC)N(C)[C@H]3[C@@](O)(C(=O)OC)[C@H](OC(C)=O)[C@]5(CC)C=CCN6CC[C@]43[C@@H]65)C2)C1 [Vinblastine] | 139.785 h |  |  |  |  |  | 0.92 | 0.176 | 26.000 L/kg | 
CC(=O)CC(c1ccccc1)c1c(O)c2ccccc2oc1=O (stereo not drawn) [Warfarin] | 33.333 h |  |  |  |  |  | 0.52 | 0.005 | 0.120 L/kg | 
